Test system: patients after acute myocardial infarction
Assay: Life quality, Seattle Angina Questionnaire (SAQ), same clinical trial
Assay type: in vivo, human
Details: PP; 12 months after treatment
Text: 3508 patients who were in accordance with the diagnostic standards of AMI for 28 days to 2 years and differentiated as Qi deficiency and blood stagnation syndrome by TCM were studied. 0.5 g Chinese medicine composition prepared by the method of EXAMPLE 1 (Coded as QSYQ) was administrated half an hour after meal, 3 times per day.
There were 19 questions in the Seattle angina questionnaire (SAQ), including 5 parts: physical limitation (PL), anginal stability (AS), anginal frequency (AF), treatment satisfaction (TS) and disease perception (DP). After being given necessary explanation by doctors, the questions were answered independently by patients.
They included the overall survival time, angina pectoris score, TCM symptom score and life quality score, where angina pectoris score, TCM symptom score and life quality score were evaluated at randomization, in 1st, 3rd, 6th, 9th, 12th month after treatment and 18th month after follow-up.
All evaluation results of SAQ were described during the period of observation, and Wilcoxon rank sum test was used for inter-group comparison.
The evaluation results in the SAQ were depicted in different observations, and inter-group comparison was tested by Wilcoxon Rank-sum test.

## CC(=O)Oc1ccccc1C(=O)O [Control group, aspirine]
  9th question: Severe, patients (%): (0.21%)
  9th question: Uneffective, patients (%): (24.25%)
  10th question: Dissatisfied, patients (%): (18.68%)
  10th question: Highly satisfied, patients (%): (8.26%)
  10th question: Mostly dissatisfied, patients (%): (18.61%)
  10th question: Mostly satisfied, patients (%): (31.84%)
  10th question: Partly dissatisfied, patients (%): (22.60%)
  11th question: Continuously worried, patients (%): (1.96%)
  11th question: No worried, patients (%): (7.42%)
  11th question: Occasionally worried, patients (%): (40.59%)
  11th question: Often worried, patients (%): (7.98%)
  11th question: Seldom worried, patients (%): (42.06%)
  SAQ 4th question, 1-2 times per week: % of patients: (10.29%)
  SAQ 4th question, 1-2 times per week: number of patients: 147
  SAQ 4th question, 1-3 times per week: % of patients: (3.36%)
  SAQ 4th question, 1-3 times per week: number of patients: 48
  SAQ 4th question, <1 time per week: % of patients: (16.38%)
  SAQ 4th question, <1 time per week: number of patients: 234
  SAQ 4th question, Not used: % of patients: (67.74%)
  SAQ 4th question, Not used: number of patients: 968
  SAQ 4th question, ≧3 times per week: % of patients: (2.24%)
  SAQ 4th question, ≧3 times per week: number of patients: 32
  SAQ 4th question, ≧4 times per day: % of patients: (0.00%)
  SAQ 4th question, ≧4 times per day: number of patients: 0
  SAQ 5th question, 1-2 times per week: % of patients: (34.01%)
  SAQ 5th question, 1-2 times per week: number of patients: 486
  SAQ 5th question, 1-3 times per day: % of patients: (4.13%)
  SAQ 5th question, 1-3 times per day: number of patients: 59
  SAQ 5th question, <1 time per week: % of patients: (30.58%)
  SAQ 5th question, <1 time per week: number of patients: 437
  SAQ 5th question, No onset: % of patients: (5.67%)
  SAQ 5th question, No onset: number of patients: 81
  SAQ 5th question, ≧3 times per week: % of patients: (25.33%)
  SAQ 5th question, ≧3 times per week: number of patients: 362
  SAQ 5th question, ≧4 times per day: % of patients: (0.28%)
  SAQ 5th question, ≧4 times per day: number of patients: 4
  SAQ 6th question, Dissatisfied: % of patients: (0.07%)
  SAQ 6th question, Dissatisfied: number of patients: 1
  SAQ 6th question, Highly satisfied: % of patients: (27.78%)
  SAQ 6th question, Highly satisfied: number of patients: 397
  SAQ 6th question, Mostly dissatisfied: % of patients: (0.84%)
  SAQ 6th question, Mostly dissatisfied: number of patients: 12
  SAQ 6th question, Mostly satisfied: % of patients: (61.72%)
  SAQ 6th question, Mostly satisfied: number of patients: 882
  SAQ 6th question, Partly satisfied: % of patients: (9.59%)
  SAQ 6th question, Partly satisfied: number of patients: 137
  SAQ 7th question, Dissatisfied: % of patients: (0.07%)
  SAQ 7th question, Dissatisfied: number of patients: 1
  SAQ 7th question, Highly satisfied: % of patients: (31.25%)
  SAQ 7th question, Highly satisfied: number of patients: 446
  SAQ 7th question, Mostly dissatisfied: % of patients: (0.28%)
  SAQ 7th question, Mostly dissatisfied: number of patients: 4
  SAQ 7th question, Mostly satisfied: % of patients: (60.34%)
  SAQ 7th question, Mostly satisfied: number of patients: 861
  SAQ 7th question, Partly satisfied: % of patients: (8.06%)
  SAQ 7th question, Partly satisfied: number of patients: 115
  SAQ Question 1-1 Mildly limited, number of patients: 7
  SAQ Question 1-1 Mildly limited, percent of patients: (0.49%)
  SAQ Question 1-1 Moderately limited, number of patients: 1
  SAQ Question 1-1 Moderately limited, percent of patients: (0.07%)
  SAQ Question 1-1 Not limited, number of patients: 1371
  SAQ Question 1-1 Not limited, percent of patients: (96.28%)
  SAQ Question 1-1 Other reasons, number of patients: 4
  SAQ Question 1-1 Other reasons, percent of patients: (0.28%)
  SAQ Question 1-1 Severely limited, number of patients: 0
  SAQ Question 1-1 Severely limited, percent of patients: (0.00%)
  SAQ Question 1-1 Slightly limited, number of patients: 41
  SAQ Question 1-1 Slightly limited, percent of patients: (2.88%)
  SAQ Question 1-2 Mildly limited, number of patients: 8
  SAQ Question 1-2 Mildly limited, percent of patients: (0.56%)
  SAQ Question 1-2 Moderately limited, number of patients: 1
  SAQ Question 1-2 Moderately limited, percent of patients: (0.07%)
  SAQ Question 1-2 Not limited, number of patients: 1365
  SAQ Question 1-2 Not limited, percent of patients: (95.79%)
  SAQ Question 1-2 Other reasons, number of patients: 6
  SAQ Question 1-2 Other reasons, percent of patients: (0.42%)
  SAQ Question 1-2 Severely limited, number of patients: 0
